Assay [1] has as its target T1, human adenosine A2A receptor (Homo sapiens, UniProt P29274).
T1 construct: expressed in transfected cells; host or cells: CHO cells, Semliki Forest virus expression system; membrane preparation
The experiment in a line: Human adenosine A2A receptor [3H]-SCH-58261 binding assay. The note with it: for Ki: affinity to human adenosine A2A receptor, read-out: Ki HA2A; for selectivity (A1/A2a): calculated ratio of the affinity to the HA1 receptor to the HA2a receptor.

Another assay concerns the target T2, HA1 adenosine receptor (Homo sapiens, UniProt P30542).
T2 sequence (P30542 1-326): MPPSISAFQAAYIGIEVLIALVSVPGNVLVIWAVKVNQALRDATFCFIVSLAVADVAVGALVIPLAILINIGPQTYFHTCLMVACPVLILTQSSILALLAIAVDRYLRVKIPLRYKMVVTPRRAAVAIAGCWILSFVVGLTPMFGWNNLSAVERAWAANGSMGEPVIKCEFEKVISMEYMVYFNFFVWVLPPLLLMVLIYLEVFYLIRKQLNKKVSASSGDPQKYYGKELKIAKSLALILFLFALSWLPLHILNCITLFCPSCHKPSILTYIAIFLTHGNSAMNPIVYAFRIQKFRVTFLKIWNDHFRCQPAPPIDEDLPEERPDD
The experiment in a line: Human adenosine A1 receptor affinity (Ki hA1). The assay is classed as binding. The following applies: affinity to human adenosine A1 receptor.

T1 sequence (P29274 whole entry): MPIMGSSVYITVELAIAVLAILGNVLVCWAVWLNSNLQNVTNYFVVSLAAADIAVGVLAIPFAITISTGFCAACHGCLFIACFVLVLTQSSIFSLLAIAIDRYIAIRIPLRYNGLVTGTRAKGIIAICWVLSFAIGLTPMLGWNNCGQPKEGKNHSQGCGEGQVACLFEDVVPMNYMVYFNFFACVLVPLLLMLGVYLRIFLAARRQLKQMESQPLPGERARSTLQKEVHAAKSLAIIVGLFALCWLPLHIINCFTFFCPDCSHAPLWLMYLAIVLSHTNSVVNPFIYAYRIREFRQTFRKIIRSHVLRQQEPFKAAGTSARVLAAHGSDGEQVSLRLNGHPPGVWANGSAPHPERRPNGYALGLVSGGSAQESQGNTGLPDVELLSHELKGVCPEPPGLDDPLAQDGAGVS

The Ki is a dissociation constant, usually derived from enzyme kinetics or from competition with a known ligand. On to `C=CCN(C)C(=O)c1cc(N)n2nc(-c3nccs3)nc2c1` [Example 283, 5-Amino-2-thiazol-2-yl-[1,2,4]triazolo[1,5-a]pyridine-7-carboxylic acid allyl-methyl-amide], for which, in assay [1], the inhibition constant (Ki) worked out at 116 nM and the “selectivity (A1/A2a)” value is 27.0. The inhibitory constant (Ki) on HA1 adenosine receptor was determined as 3130 nM.

Take `CCCN(C)C(=O)c1cc(N)n2nc(-c3nccs3)nc2c1` [Example 284, 5-Amino-2-thiazol-2-yl-[1,2,4]triazolo[1,5-a]pyridine-7-carboxylic acid methyl-propyl-amide]: in assay [1], the Ki was 132 nM and the “selectivity (A1/A2a)” value is 29.5. Also, on HA1 adenosine receptor, the inhibitory constant (Ki) is 3890 nM.

As to `CC(C)N(C)C(=O)c1cc(N)n2nc(-c3nccs3)nc2c1` [Example 285, 5-Amino-2-thiazol-2-yl-[1,2,4]triazolo[1,5-a]pyridine-7-carboxylic acid isopropyl-methyl-amide], the inhibition constant Ki in assay [1] was found to be 83.5 nM; at HA1 adenosine receptor, 2720 nM. For the same compound, the “selectivity (A1/A2a)” value in assay [1] was 32.6.

Turning to `CC1CCCN1C(=O)c1cc(N)n2nc(-c3nccs3)nc2c1` (stereo not drawn) [Example 286, (5-Amino-2-thiazol-2-yl-[1,2,4]triazolo[1,5-a]pyridin-7-yl)-(2-methyl-pyrrolidin-1-yl)-methanone], in assay [1], the Ki was found to be 32.4 nM and the “selectivity (A1/A2a)” value is 91.8. In addition, the Ki on HA1 adenosine receptor turned out to be 2970 nM.

In the case of `CCCCN(C)C(=O)c1cc(N)n2nc(-c3nccs3)nc2c1` [Example 287, 5-Amino-2-thiazol-2-yl-[1,2,4]triazolo[1,5-a]pyridine-7-carboxylic acid butyl-methyl-amide], the figures for the Ki (in assay [1]; on HA1 adenosine receptor) were 142 nM and 2190 nM, respectively. For the same compound, the “selectivity (A1/A2a)” value in assay [1] was 15.4.

In the case of `CCN(C(=O)c1cc(N)n2nc(-c3nccs3)nc2c1)C(C)C` [Example 288, 5-Amino-2-thiazol-2-yl-[1,2,4]triazolo[1,5-a]pyridine-7-carboxylic acid ethyl-isopropyl-amide], in assay [1], the Ki came out at 66.6 nM and the “selectivity (A1/A2a)” value is on record as 21.0. On HA1 adenosine receptor, this compound displayed a Ki of 1400 nM.

Take `Nc1cc(C(=O)N2CCSC2)cc2nc(-c3nccs3)nn12` [Example 289, (5-Amino-2-thiazol-2-yl-[1,2,4]triazolo[1,5-a]pyridin-7-yl)-thiazolidin-3-yl-methanone]: in assay [1], the inhibition constant Ki amounted to 55.3 nM and the “selectivity (A1/A2a)” value was 42.0. On HA1 adenosine receptor, this compound returned a Ki of 2320 nM.

Consider `C=CCN(CC=C)C(=O)c1cc(N)n2nc(-c3nccs3)nc2c1` [Example 290, 5-Amino-2-thiazol-2-yl-[1,2,4]triazolo[1,5-a]pyridine-7-carboxylic acid diallylamide], for which the Ki turned out to be 57.6 nM in assay [1] and 1280 nM at HA1 adenosine receptor. Also, in assay [1], the “selectivity (A1/A2a)” value is on record as 22.2.

On to `CCCCN(CC)C(=O)c1cc(N)n2nc(-c3nccs3)nc2c1` [Example 291, 5-Amino-2-thiazol-2-yl-[1,2,4]triazolo[1,5-a]pyridine-7-carboxylic acid butyl-ethyl-amide], for which, in assay [1], the inhibitory constant (Ki) is 89.5 nM and the “selectivity (A1/A2a)” value was 17.2. In addition, at HA1 adenosine receptor, the inhibition constant Ki was 1540 nM.

For `CCCCCN(C)C(=O)c1cc(N)n2nc(-c3nccs3)nc2c1` [Example 292, 5-Amino-2-thiazol-2-yl-[1,2,4]triazolo[1,5-a]pyridine-7-carboxylic acid methyl-pentyl-amide], in assay [1], the inhibition constant (Ki) stood at 108 nM and the “selectivity (A1/A2a)” value is listed as 13.9. Also, the affinity at HA1 adenosine receptor corresponds to a Ki of 1510 nM.

For the compound `CN(C)C(=O)c1cc(N)n2nc(-c3ccc(Br)o3)nc2c1` [Example 293, 5-Amino-2-(5-bromo-furan-2-yl)-[1,2,4]triazolo[1,5-a]pyridine-7-carboxylic acid dimethylamide], the Ki is 24.1 nM in assay [1] and 528 nM on HA1 adenosine receptor. Besides, in assay [1], the “selectivity (A1/A2a)” value was 21.9.

On to `Nc1cc(C(=O)N2CC=CCC2)cc2nc(-c3ccc(Br)o3)nn12` [Example 294, [5-Amino-2-(5-bromo-furan-2-yl)-[1,2,4]triazolo[1,5-a]pyridin-7-yl]-(3,6-dihydro-2H-pyridin-1-yl)-methanone], for which, in assay [1], the inhibition constant Ki was 4.1 nM and the “selectivity (A1/A2a)” value is 35.0. Also, the Ki at HA1 adenosine receptor was 143 nM.

As to `Nc1cc(C(=O)N2CCCCCC2)cc2nc(-c3ccc(Br)o3)nn12` [Example 296], in assay [1], the inhibition constant (Ki) is 1.7 nM and the “selectivity (A1/A2a)” value is recorded as 31.0. Moreover, the Ki at HA1 adenosine receptor worked out at 52.7 nM.

On to `CCCN(CC1CC1)C(=O)c1cc(N)n2nc(-c3ccc(Br)o3)nc2c1` [Example 298, 5-Amino-2-(5-bromo-furan-2-yl)-[1,2,4]triazolo[1,5-a]pyridine-7-carboxylic acid cyclopropylmethyl-propyl-amide], for which, in assay [1], the inhibition constant Ki stood at 2.2 nM and the “selectivity (A1/A2a)” value is on record as 42.7. For the same compound, the Ki on HA1 adenosine receptor was 94 nM.

On to `CCN1CCN(C(=O)c2cc(N)n3nc(-c4ccc(Br)o4)nc3c2)CC1` [Example 299, [5-Amino-2-(5-bromo-furan-2-yl)-[1,2,4]triazolo[1,5-a]pyridin-7-yl]-(4-ethyl-piperazin-1-yl)-methanone], for which the Ki is 123 nM in assay [1] and 1600 nM on HA1 adenosine receptor. Moreover, the “selectivity (A1/A2a)” value in assay [1] is listed as 13.0.

On to `NC(=O)C1CCN(C(=O)c2cc(N)n3nc(-c4ccc(Br)o4)nc3c2)CC1` [Example 300, 1-[5-Amino-2-(5-bromo-furan-2-yl)-[1,2,4]triazolo[1,5-a]pyridine-7-carbonyl]-piperidine-4-carboxylic acid amide], for which, in assay [1], the inhibitory constant (Ki) was 74.7 nM and the “selectivity (A1/A2a)” value is on record as 5.2. At HA1 adenosine receptor, this compound registered an inhibition constant Ki of 385 nM.

Turning to `CC1CCC(C)N1C(=O)c1cc(N)n2nc(-c3nccs3)nc2c1` (stereo not drawn) [Example 301], in assay [1], the inhibition constant (Ki) came to 62.1 nM and the “selectivity (A1/A2a)” value is 30.5. At HA1 adenosine receptor, this compound came in with a Ki of 1900 nM.

`CC1C=CC(C)N1C(=O)c1cc(N)n2nc(-c3nccs3)nc2c1` (stereo not drawn) [Example 302]: in assay [1], the Ki was found to be 104 nM and the “selectivity (A1/A2a)” value is on record as 19.4. The compound also displayed a Ki on HA1 adenosine receptor of 2020 nM.

Consider `CC1CCCC(C)N1C(=O)c1cc(N)n2nc(-c3ccc(Br)o3)nc2c1` (stereo not drawn) [Example 303, [5-Amino-2-(5-bromo-furan-2-yl)-[1,2,4]triazolo[1,5-a]pyridin-7-yl]-(2,6-dimethyl-piperidin-1-yl)-methanone], for which, in assay [1], the Ki worked out at 149 nM and the “selectivity (A1/A2a)” value was 8.7. This compound gave a Ki on HA1 adenosine receptor of 1300 nM.

As for `CC1CN(C(=O)c2cc(N)n3nc(-c4ccc(Br)o4)nc3c2)CC(C)O1` (stereo not drawn) [Example 304, [5-Amino-2-(5-bromo-furan-2-yl)-[1,2,4]triazolo[1,5-a]pyridin-7-yl]-(2,6-dimethyl-morpholin-4-yl)-methanone], in assay [1], the Ki was 9.3 nM and the “selectivity (A1/A2a)” value was 41.0. At HA1 adenosine receptor, this compound came in with a Ki of 382 nM.

With `COCCN(CCOC)C(=O)c1cc(N)n2nc(-c3ccc(Br)o3)nc2c1` [Example 305, 5-Amino-2-(5-bromo-furan-2-yl)-[1,2,4]triazolo[1,5-a]pyridine-7-carboxylic acid bis-(2-methoxy-ethyl)-amide], in assay [1], the inhibition constant (Ki) turned out to be 5.2 nM and the “selectivity (A1/A2a)” value is recorded as 26.8. This compound also showed a Ki on HA1 adenosine receptor of 139 nM.

Regarding `CCN(Cc1ccccc1)C(=O)c1cc(N)n2nc(-c3ccc(Br)o3)nc2c1` [Example 307, 5-Amino-2-(5-bromo-furan-2-yl)-[1,2,4]triazolo[1,5-a]pyridine-7-carboxylic acid benzyl-ethyl-amide], in assay [1], the Ki was 1.7 nM and the “selectivity (A1/A2a)” value is 12.5. The affinity on HA1 adenosine receptor corresponds to a Ki of 21.2 nM.

Regarding `CN(CCc1ccccn1)C(=O)c1cc(N)n2nc(-c3ccc(Br)o3)nc2c1` [Example 308, 5-Amino-2-(5-bromo-furan-2-yl)-[1,2,4]triazolo[1,5-a]pyridine-7-carboxylic acid methyl-(2-pyridin-2-yl-ethyl)-amide], the values for the inhibition constant (Ki) (in assay [1]; on HA1 adenosine receptor) were 9.8 nM and 463 nM, respectively. In assay [1], the “selectivity (A1/A2a)” value is reported as 47.2.

In the case of `CCN(CC)CCN(CC)C(=O)c1cc(N)n2nc(-c3ccc(Br)o3)nc2c1` [Example 309, 5-Amino-2-(5-bromo-furan-2-yl)-[1,2,4]triazolo[1,5-a]pyridine-7-carboxylic acid (2-diethylamino-ethyl)-ethyl-amide], the inhibitory constant (Ki) is 49.5 nM in assay [1] and 488 nM at HA1 adenosine receptor. Besides, the “selectivity (A1/A2a)” value in assay [1] is 9.9.

Turning to `Nc1cc(C(=O)N2CCN(Cc3ccccc3)CC2)cc2nc(-c3ccc(Br)o3)nn12` [Example 310, [5-Amino-2-(5-bromo-furan-2-yl)-[1,2,4]triazolo[1,5-a]pyridin-7-yl]-(4-benzyl-piperazin-1-yl)-methanone], the figures for the inhibition constant (Ki) (in assay [1]; on HA1 adenosine receptor) were 148 nM and 314 nM, respectively. In addition, the “selectivity (A1/A2a)” value in assay [1] is 2.1.

Regarding `Nc1cc(C(=O)N(CC(F)(F)F)CC(F)(F)F)cc2nc(-c3ccc(Br)o3)nn12` [Example 311, 5-Amino-2-(5-bromo-furan-2-yl)-[1,2,4]triazolo[1,5-a]pyridine-7-carboxylic acid bis-(2,2,2-trifluoro-ethyl)-amide], in assay [1], the inhibitory constant (Ki) worked out at 25.8 nM and the “selectivity (A1/A2a)” value was 22.3. The affinity on HA1 adenosine receptor, expressed as Ki, was 577 nM.

With `Nc1cc(C(=O)N2CC=C(c3ccccc3)CC2)cc2nc(-c3ccc(Br)o3)nn12` [Example 312, [5-Amino-2-(5-bromo-furan-2-yl)-[1,2,4]triazolo[1,5-a]pyridin-7-yl]-(4-phenyl-3,6-dihydro-2H-pyridin-1-yl)-methanone], in assay [1], the Ki was found to be 21.8 nM and the “selectivity (A1/A2a)” value was 10.4. In addition, the affinity on HA1 adenosine receptor, expressed as Ki, was 227 nM.

Source of the values: patent US6506772B1, “Substituted [1,2,4]triazolo[1,5a]pyridine derivatives with activity as adenosine receptor ligands” (Hoffmann-La Roche Inc., priority 2000, dated 2003).
